Results as given in patent US20240276978A1, “Method for Dispersing Live Predatory Mites of the Phytoseiulus Genus Which Are Used in Biocontrol” (Bioline Agrosciences France, priority 2020, published 2024).

How the values were obtained:
[1] = Thickening agent solution equivalent to the standard; format: physicochemical; details: at concentration tested (g/L): alginate 10, modified corn starch 34, amylopectin 67, carrageenans 3, chitosan 100, dextrin 46, guar 2, xanthan 2, glycerol 860, konjac 4, Carbomer 940 4, Gel Maker EMU 4.4, PVP 60, carboxymethylcellulose 30, hydroxypropylcellulose 30, calcium chloride 280, potassium chloride 280, potassium sulfate 140
Phytoseiulus persimilis = test: "Toxicity" of thickening agent to persimilis at 12 hours; format: in vivo; details: concentration tested (g/L): alginate 10, modified corn starch 34, carrageenans 3, guar 2, xanthan 2, glycerol 860, konjac 4, Carbomer 940 4, Gel Maker EMU 4.4, PVP 60, carboxymethylcellulose 30
Method: “Non-toxic” means less than 20% of biocontrol agents dead at the end of 12 hours.
A little solution containing the persimilis is kept in order to evaluate any possible “toxicity” at 12 hours.

Compound | Equivalent to the standard [1] | “Toxicity” (Phytoseiulus persimilis)
[Ca+2].[Cl-].[Cl-] [Calcium chloride] | No | 
OCC(O)CO [Glycerol] | Yes | Yes
[Cl-].[K+] [Potassium chloride] | No | 
O=S(=O)([O-])[O-].[K+].[K+] [Potassium sulfate] | no | 
